In patent US20240199584A1, “KRAS INHIBITORS” (Bristol-Myers Squibb Company, priority 2022, published 2024) one finds IC50 data, which are given here for 17 molecules.

Broadly, the IC50 is the concentration needed to halve the response being measured. A higher IC50 goes with weaker potency in that assay.

The target in assay [1] is T1, KRAS G12D (Homo sapiens, UniProt P01116, G12D). Briefly: biochemical.
Experimental: BIODIPY-labeled GDP (BIODIPY: dipyrrometheneboron difluoride) (400 nM) and recombinant SOS (son of sevenless protein) (10 nM) were added, and the reaction was incubated for 30 minutes. HTRF signal was measured (PerkinElmer Envision), the signal ratio (λem 520/λem 495) was calculated, and IC50 values were calculated from the dose-response curve.
The target of assay [2] is T1, KRAS G12D. Briefly: biochemical. This is another data set of the same source.
Experimental: Recombinant GST-RAF1 RBD (Ras binding domain) (9 nM) was added, followed by the addition of SA-Tb (0.25 nM), and the reaction mixture was incubated for 3 hours. HTRF (Homogeneous Time-Resolved Fluorescence) signal was measured (PerkinElmer Envision), the signal ratio (λem 520/λem 495) was calculated, and IC50 values were calculated from the dose-response curve.

Like-named read-outs stand apart in the source and are kept apart here.

T1 sequence (P01116 1-188 isoform P01116-2 G12D): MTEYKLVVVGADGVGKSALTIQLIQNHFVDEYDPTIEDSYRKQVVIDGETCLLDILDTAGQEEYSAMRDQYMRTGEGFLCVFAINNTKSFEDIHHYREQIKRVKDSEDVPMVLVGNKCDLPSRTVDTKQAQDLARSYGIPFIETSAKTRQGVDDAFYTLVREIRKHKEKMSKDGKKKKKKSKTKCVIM

Take `C#Cc1c(F)ccc2cc(O)cc(-c3nc(OC)c4c(N5CCOC6CC65)nc(OC[C@@]56CCCN5C[C@H](F)C6)nc4c3F)c12` (stereo partly drawn) [Example 9-40, 4-(4-(2-oxa-5-azabicyclo[4.1.0]heptan-5-yl)-8-fluoro-2-(((2R,7aS)-2-fluorotetrahydro-1H-pyrrolizin-7a(5H)-yl)methoxy)-5-methoxypyrido[4,3-d]pyrimidin-7-yl)-5-ethynyl-6-fluoronaphthalen-2-ol]: the IC50 at KRAS G12D [1] was 6 nM. For `C#Cc1c(F)ccc2cc(O)cc(-c3ncc4c(N5CCOCCC5C)nc(OC[C@]56CCC[C@H]5N(C)CCC6)nc4c3F)c12` (single isomer, unassigned) [Example 1-142], the half-maximal inhibitory concentration (IC50) against KRAS G12D [2] stood at 560 nM.

Regarding `CN1CCC[C@@]2(COc3nc(N4CCC[C@@](C)(O)C4)c4cnc(-c5cnc(OC(F)F)c6ccccc56)c(F)c4n3)CCC[C@@H]12` [Example 10-7, (3R)-1-(2-{[(4aS,7aR)-1-methyl-octahydro-1H-cyclopenta[b]pyridin-4a-yl]methoxy}-7-[1-(difluoromethoxy)isoquinolin-4-yl]-8-fluoropyrido[4,3-d]pyrimidin-4-yl)-3-methylpiperidin-3-ol], the IC50 on KRAS G12D [2] and against KRAS G12D [1] was above 100000 nM throughout. For `C#Cc1c(F)ccc2cc(O)cc(-c3ccc4c(N5CC6CCC(C5)N6C(=O)C5CC(F)(F)C5)nc(OC[C@@]56CCCN5C[C@H](F)C6)nc4c3F)c12` [Example 7-4, 4-(2-{[(2R,7aS)-2-fluoro-hexahydro-1H-pyrrolizin-7a-yl]methoxy}-4-[8-(3,3-difluorocyclobutanecarbonyl)-3,8-diazabicyclo[3.2.1]octan-3-yl]-8-fluoroquinazolin-7-yl)-5-ethynyl-6-fluoronaphthalen-2-ol], the IC50 is 6600 nM at KRAS G12D [2] and below 2 nM at KRAS G12D [1]. Turning to `C#Cc1c(F)ccc2cc(O)cc(-c3ccc4c(N5CC6C(C5)C6(C)C)nc(OC[C@@]56CCCN5C[C@H](F)C6)nc4c3F)c12` (stereo partly drawn) [Example 2-11, 4-(2-{[(2R,7aS)-2-fluoro-hexahydro-1H-pyrrolizin-7a-yl]methoxy}-4-{6,6-dimethyl-3-azabicyclo[3.1.0]hexan-3-yl}-8-fluoroquinazolin-7-yl)-5-ethynyl-6-fluoronaphthalen-2-ol], the IC50 on KRAS G12D [2] turned out to be 2620 nM; on KRAS G12D [1] it was 2610 nM. The corresponding values for `C#Cc1c(F)ccc2cc(O)cc(-c3ncc4c(N5CCCC(CO)C5)nc(OC[C@@]56CCCN5C[C@H](F)C6)nc4c3F)c12` (single isomer, unassigned) [Example 1-63] are at least 100000 nM and 12800 nM. The like results for `CN1CCC[C@@]2(COc3nc(N4CCC[C@@](C)(O)C4)c4cnc(-c5cn(C(F)F)c(=O)c6ccccc56)c(F)c4n3)CCC[C@@H]12` [Example 10-6, 4-(2-{[(4aS,7aR)-1-methyl-octahydro-1H-cyclopenta[b]pyridin-4a-yl]methoxy}-8-fluro-4-[(3R)-3-hydroxy-3-methylpiperidin-1-yl]pyrido[4,3-d]pyrimidin-7-yl)-2-(difluoromethyl)-1,2-dihydroisoquinolin-1-one] were, in that order, above 100000 nM and above 100000 nM. Consider `C#Cc1c(F)ccc2cc(O)cc(-c3ncc4c(N5CCOCCC5C)nc(OC[C@]56CCC[C@H]5N(C)CCC6)nc4c3F)c12` (stereo partly drawn) [Example 1-93, 4-(2-{[(4aS,7aR)-1-methyl-octahydro-1H-cyclopenta [b]pyridin-4a-yl]methoxy}-8-fluoro-4-(5-methyl-1,4-oxazepan-4-yl)pyrido[4,3-d]pyrimidin-7-yl)-5-ethynyl-6-fluoronaphthalen-2-ol], for which 190 nM corresponded to half-maximal inhibition against KRAS G12D [2] (IC50). On to `C#Cc1c(F)ccc2cc(O)cc(-c3ccc4c(N5CCCC(C#N)C5)nc(OC[C@@]56CCCN5C[C@H](F)C6)nc4c3F)c12` (single isomer, unassigned) [Example 2-41], for which, on KRAS G12D [2], the IC50 is 680 nM. Take `CN1CCC[C@@]2(COc3nc(N4CCC[C@@](C)(O)C4)c4cnc(-c5cc(O)ccc5C5CCC5)c(F)c4n3)CCC[C@@H]12` [Example 10-3, (3R)-1-(2-{[(4aS,7aR)-1-methyl-octahydro-1H-cyclopenta[b]pyridin-4a-yl]methoxy}-7-(2-cyclobutyl-5-hydroxyphenyl)-8-fluoropyrido[4,3-d]pyrimidin-4-yl)-3-methylpiperidin-3-ol]: the IC50 is 1060 nM at KRAS G12D [2] and below 2 nM at KRAS G12D [1]. In turn, `C#Cc1c(F)ccc2cc(O)cc(-c3ncc4c(N5CCCC(C#N)C5)nc(OC[C@@]56CCCN5C[C@H](F)C6)nc4c3F)c12` (single isomer, unassigned) [Example 1-23] displayed an IC50 at KRAS G12D [2] of 2 nM. Regarding `C#Cc1c(F)ccc2cc(O)cc(-c3ncc4c(N5CCCC(C#N)C5)nc(OCC5(CN6CCC(F)CC6)CC5)nc4c3F)c12` (single isomer, unassigned) [Example 1-44, 1-[7-(8-ethynyl-7-fluoro-3-hydroxynaphthalen-1-yl)-8-fluoro-2-({1-[(4-fluoropiperidin-1-yl)methyl]cyclopropyl}methoxy)pyrido [4,3-d]pyrimidin-4-yl]piperidine-3-carbonitrile], the IC50 was above 100000 nM on KRAS G12D [2] and 19100 nM against KRAS G12D [1]. The like results for `C#Cc1c(F)ccc2cc(O)cc(-c3ncc4c(N5CCCOCC5)nc(OC[C@@]56C[C@@H](F)CN5CC5(CC5)C6)nc4c3F)c12` [Example 1-106, 4-(2-{[(6′R,7′aR)-6′-fluoro-hexahydrospiro [cyclopropane-1,2′-pyrrolizine]-7′a-yl]methoxy}-8-fluoro-4-(1,4-oxazepan-4-yl)pyrido[4,3-d]pyrimidin-7-yl)-5-ethynyl-6-fluoronaphthalen-2-ol] were, in that order, 10 nM and 10 nM. For `C#Cc1c(F)ccc2cc(O)cc(-c3nc(OC)c4c(N5CCC[C@](O)(CF)C5)nc(OC[C@]56CCC[C@H]5N(C)CCC6)nc4c3F)c12` [Example 9-26, (R)-1-(7-(8-ethynyl-7-fluoro-3-hydroxynaphthalen-1-yl)-8-fluoro-5-methoxy-2-(((4aS,7aR)-1-methyloctahydro-4aH-cyclopenta[b]pyridin-4a-yl)methoxy)pyrido[4,3-d]pyrimidin-4-yl)-3-(fluoromethyl)piperidin-3-ol], the concentration for half-maximal inhibition (IC50) on KRAS G12D [1] stood at 6 nM. As to `CN1CCC[C@@]2(COc3nc(N4CCC[C@@](C)(O)C4)c4cnc(-c5cn(C(F)F)c(=O)c6ccc(C(F)(F)F)cc56)c(F)c4n3)CCC[C@@H]12` [Example 10-8, 4-(2-{[(4aS,7aR)-1-methyl-octahydro-1H-cyclopenta[b]pyridin-4a-yl]methoxy}-8-fluoro-4-[(3R)-3-hydroxy-3-methylpiperidin-1-yl]pyrido[4,3-d]pyrimidin-7-yl)-2-(difluoromethyl)-6-(trifluoromethyl)-1,2-dihydroisoquinolin-1-one], the IC50 on KRAS G12D [2] and at KRAS G12D [1] was above 100000 nM each time. For the molecule `C#Cc1c(F)ccc2cc(O)cc(-c3ncc4c(N5C[C@@H](C)O[C@@H](C)C5)nc(OC[C@]56CCC[C@H]5N(C)CCC6)nc4c3F)c12` [Example 1-12, 4-(2-{[(4aS,7aR)-1-methyl-octahydro-1H-cyclopenta[b]pyridin-4a-yl]methoxy}-4-[(2R,6S)-2,6-dimethylmorpholin-4-yl]-8-fluoropyrido[4,3-d]pyrimidin-7-yl)-5-ethynyl-6-fluoronaphthalen-2-ol], the IC50 against KRAS G12D [2] is 1000 nM; against KRAS G12D [1], below 2 nM. The like results for `C#Cc1c(F)ccc2cc(O)cc(-c3ncc4c(N5CCOCC(CC#N)C5)nc(OC[C@]56CCC[C@H]5N(C)CCC6)nc4c3F)c12` (single isomer, unassigned) [Example 1-130] were, in that order, 2 nM and 2 nM.
